Laboratory results taken from article PMC11645267, “Novel pharmacologic inhibition of lysine-specific demethylase 1 as a potential therapeutic for glioblastoma” (Cancer Gene Therapy, 2024).

Key:
LSD1 = LSD1 (Homo sapiens, UniProt O60341); assay: Enzyme inhibition assay (in vitro peroxidase assay) against LSD1
Description: (§1) Enzyme inhibition assays against LSD1, LSD2, MAO-A, and MAO-B were performed as previously described [25]. Technical replicates, n = 3.

MAO-A = molecular target: T1, MAO-A (Homo sapiens, UniProt P21397); assay: Enzyme inhibition assay (in vitro peroxidase assay) against MAO-A
T1 sequence (P21397 1-527): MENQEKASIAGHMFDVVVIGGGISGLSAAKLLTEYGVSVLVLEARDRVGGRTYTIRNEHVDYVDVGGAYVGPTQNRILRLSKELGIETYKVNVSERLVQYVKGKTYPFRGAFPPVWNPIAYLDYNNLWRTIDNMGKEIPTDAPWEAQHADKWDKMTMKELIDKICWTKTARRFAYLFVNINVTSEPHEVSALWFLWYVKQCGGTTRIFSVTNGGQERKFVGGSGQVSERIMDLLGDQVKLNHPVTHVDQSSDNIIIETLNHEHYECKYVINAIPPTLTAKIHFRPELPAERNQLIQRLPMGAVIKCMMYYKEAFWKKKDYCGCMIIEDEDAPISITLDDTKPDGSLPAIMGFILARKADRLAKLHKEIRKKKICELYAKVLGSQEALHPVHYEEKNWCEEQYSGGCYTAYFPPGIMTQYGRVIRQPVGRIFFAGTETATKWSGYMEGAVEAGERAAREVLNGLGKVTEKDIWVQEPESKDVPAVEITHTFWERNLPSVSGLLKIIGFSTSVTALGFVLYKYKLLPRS
Description: as §1

[1] = test system: GSC1228 intracranial xenograft; assay: Intracranial xenograft mouse model inoculated with GSC1228 cells; format: in vivo, NOD/SCID mice
Description: All experiments were performed under protocols approved by the Institutional Animal Care and Use Committee of Nagoya University of Graduate School of Medicine. Cells (1 × 10^5 cells per mouse) were injected intracranially into 6-week-old female NOD/SCID mice (n = 20, SLC, Shizuoka, Japan). Four weeks after the injection, S2172 or DMSO were intravenously injected five days a week for 3 weeks (10 mg/kg per day, 15 injections in total). We used established guidelines to determine the sample size for the mouse experiments. The mice were assigned randomly to experimental and control groups. There was no blinding applied in the experiment.
We utilized intracranial xenograft mouse models inoculated with GSC1228 cells. After 30 days of inoculation, we administered S2172 intravenously at 10 mg/kg five times a week for three weeks. […] Following treatment with S2172 for one week, mice were sacrificed, and the xenograft glioma tissues were examined. The H3K4me2 level was increased in the tumor regions treated with S2172 (P < 0.01, Fig. 4B). Consistent with the in vitro analysis, the protein levels of Nestin and SOX2 were decreased in tumor tissues (Fig. 4C).
Fig. 4 S2172 eradicates tumor cells in GSC brain tumor mouse model. A Tumor volume was assessed by MRI after treatment with either DMSO or S2172 for 15 times. Error bars represent the SD. *P < 0.05. n = 7. B H3K4me2 level in the tumor tissue from the mouse brain (left panel). Quantification of western blot band signal intensity (right panel). The y-axis in the panel indicates the relative signal intensity of each protein normalized to histone H3. […] Quantification of western blot band signal intensity (right panel). […]
The density of bands was quantified using ImageJ software (https://imagej.nih.gov/ij/). […]
When mice were scanned with MRI, mice were anesthetized with isoflurane (3% in air) and placed in MRS 3017 Benchtop MRI Systems (MR Solutions, Guildford, UK). Using MRI images, tumor volumes were obtained by compiling tumor areas from all slices that contained tumors and calculated by ImageJ software (https://imagej.nih.gov/ij/) {Towner, […]

LSD2 = molecular target: T2, LSD2 (Homo sapiens, UniProt Q8NB78); assay: Enzyme inhibition assay (in vitro peroxidase assay) against LSD2
T2 sequence (Q8NB78 1-822): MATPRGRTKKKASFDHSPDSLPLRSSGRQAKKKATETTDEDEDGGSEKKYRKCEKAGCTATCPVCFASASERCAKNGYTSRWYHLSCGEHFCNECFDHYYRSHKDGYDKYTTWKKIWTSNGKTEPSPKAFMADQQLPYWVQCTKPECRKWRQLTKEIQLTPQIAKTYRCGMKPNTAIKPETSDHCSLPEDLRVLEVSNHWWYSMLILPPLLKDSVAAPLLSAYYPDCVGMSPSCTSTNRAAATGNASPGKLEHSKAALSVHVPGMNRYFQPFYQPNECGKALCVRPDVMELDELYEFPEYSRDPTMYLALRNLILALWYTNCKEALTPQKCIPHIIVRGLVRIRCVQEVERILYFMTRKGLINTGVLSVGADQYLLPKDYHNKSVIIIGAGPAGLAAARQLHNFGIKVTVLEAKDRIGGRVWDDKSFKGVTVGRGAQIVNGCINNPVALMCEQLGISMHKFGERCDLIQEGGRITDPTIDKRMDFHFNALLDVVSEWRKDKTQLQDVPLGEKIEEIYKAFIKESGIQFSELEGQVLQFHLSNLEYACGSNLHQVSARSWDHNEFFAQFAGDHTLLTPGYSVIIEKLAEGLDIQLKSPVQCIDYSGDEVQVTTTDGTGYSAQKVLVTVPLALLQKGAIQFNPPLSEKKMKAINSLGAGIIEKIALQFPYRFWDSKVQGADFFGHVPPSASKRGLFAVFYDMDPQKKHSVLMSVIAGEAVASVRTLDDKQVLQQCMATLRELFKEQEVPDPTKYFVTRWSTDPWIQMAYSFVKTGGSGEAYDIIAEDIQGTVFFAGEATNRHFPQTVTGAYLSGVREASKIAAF
Description: as §1

## NC1CCC(NC2CC2c2cc(F)cc(F)c2OCc2ccccc2)CC1 (stereo not shown) [S2172]
LSD1
  Ki: 0.27 ± 0.06 µM
LSD1; read-out: kinact LSD1
  kinact: 0.0026 ± 0.0002 s⁻¹
LSD1; read-out: kinact/Ki LSD1
  kinact/KI: 9800 ± 570 M⁻¹ s⁻¹
MAO-A
  Ki: > 250 µM
MAO-A; in vitro peroxidase assay
  Inhibition of MAO-A (in words): not inhibited
[1]; 10 mg/kg intravenously five times a week for three weeks, P < 0.05 MRI, P < 0.01 HE
  tumor area (MRI; HE-stained tissue images): significantly smaller
[1]; after one week of treatment
  protein levels of Nestin and SOX2 in tumor tissues: decreased
[1]; after one week of treatment, P < 0.01
  H3K4me2 level in tumor regions: increased
LSD2
  Ki: > 250 µM
LSD2; in vitro peroxidase assay
  Inhibition of LSD2 (in words): not inhibited
